Experimental data reported in PubChem BioAssay AID2060329 (Molecular Pharmacology Branch, DTP, NCI, 2025).

Tested on: MCF7 multi-cell spheroids with HUVEC/MSC, viability
Test: Anticancer human tumor MCF7 cell line growth inhibition [IpAb];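 also: spheroids exposed to agents for seven days before readout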
Conditions: for IC50: curve of first compound; for viability, T/C: stronger effect = lower value
Summary of the method: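 Combinations with ipatasertib or abemaciclib were tested on tumour spheroids holding HUVEC (25%) and MSC (15%) alongside 60% malignant cells. Top concentration was at or near clinical Cmax (10 microM if undefined), descending in half-log steps.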

[1] = second compound 0.1 µM, first compound 0.0316 µM
[2] = second compound 0.1 µM, first compound 0.1 µM
[3] = second compound 0.1 µM, first compound 0.316 µM
[4] = second compound 0.1 µM, first compound 1 µM
[5] = second compound 0.1 µM, first compound 3.16 µM
[6] = second compound 0.1 µM, first compound 10 µM
[7] = second compound 0.316 µM, first compound 0.0316 µM
[8] = second compound 0.316 µM, first compound 0.1 µM
[9] = second compound 0.316 µM, first compound 0.316 µM
[10] = second compound 0.316 µM, first compound 1 µM
[11] = second compound 0.316 µM, first compound 3.16 µM
[12] = second compound 0.316 µM, first compound 10 µM
[13] = second compound 1 µM, first compound 0.0316 µM
[14] = second compound 1 µM, first compound 0.1 µM
[15] = second compound 1 µM, first compound 0.316 µM
[16] = second compound 1 µM, first compound 1 µM
[17] = second compound 1 µM, first compound 3.16 µM
[18] = second compound 1 µM, first compound 10 µM
[19] = second compound 3.16 µM, first compound 0.0316 µM
[20] = second compound 3.16 µM, first compound 0.1 µM
[21] = second compound 3.16 µM, first compound 0.316 µM
[22] = second compound 3.16 µM, first compound 1 µM
[23] = second compound 3.16 µM, first compound 3.16 µM
[24] = second compound 3.16 µM, first compound 10 µM
[25] = second compound 10 µM, first compound 0.0316 µM
[26] = second compound 10 µM, first compound 0.1 µM
[27] = second compound 10 µM, first compound 0.316 µM
[28] = second compound 10 µM, first compound 1 µM
[29] = second compound 10 µM, first compound 3.16 µM
[30] = second compound 10 µM, first compound 10 µM
[31] = second compound 0.1 µM, first compound 0.00949 µM
[32] = second compound 0.1 µM, first compound 0.03 µM
[33] = second compound 0.1 µM, first compound 0.0949 µM
[34] = second compound 0.1 µM, first compound 0.3 µM
[35] = second compound 0.316 µM, first compound 0.00949 µM
[36] = second compound 0.316 µM, first compound 0.03 µM
[37] = second compound 0.316 µM, first compound 0.0949 µM
[38] = second compound 0.316 µM, first compound 0.3 µM
[39] = second compound 1 µM, first compound 0.00949 µM
[40] = second compound 1 µM, first compound 0.03 µM
[41] = second compound 1 µM, first compound 0.0949 µM
[42] = second compound 1 µM, first compound 0.3 µM
[43] = second compound 3.16 µM, first compound 0.00949 µM
[44] = second compound 3.16 µM, first compound 0.03 µM
[45] = second compound 3.16 µM, first compound 0.0949 µM
[46] = second compound 3.16 µM, first compound 0.3 µM
[47] = second compound 10 µM, first compound 0.00949 µM
[48] = second compound 10 µM, first compound 0.03 µM
[49] = second compound 10 µM, first compound 0.0949 µM
[50] = second compound 10 µM, first compound 0.3 µM

C=CC(=O)N1CCN(c2nc(=O)n(-c3c(C)ccnc3C(C)C)c3nc(-c4c(O)cccc4F)c(F)cc23)C(C)C1 (stereo not given) + CC(C)NCC(C(=O)N1CCN(c2ncnc3c2C(C)CC3O)CC1)c1ccc(Cl)cc1
IC50 (second compound 0.1 µM): 8300 nM | IC50 (second compound 0.316 µM): 6940 nM | IC50 (second compound 1 µM): 2710 nM | IC50 (second compound 3.16 µM): 1060 nM | IC50 (second compound 10 µM): < 31.6 nM | viability, T/C [1]: 82.4% | viability, T/C [2]: 99.8% | viability, T/C [3]: 100% | viability, T/C [4]: 90.8% | viability, T/C [5]: 78.3% | viability, T/C [6]: 44.5% | viability, T/C [7]: 79.5% | viability, T/C [8]: 87.3% | viability, T/C [9]: 77.1% | viability, T/C [10]: 73.3% | viability, T/C [11]: 68.4% | viability, T/C [12]: 41.6% | viability, T/C [13]: 74.5% | viability, T/C [14]: 73.3% | viability, T/C [15]: 65.4% | viability, T/C [16]: 65.8% | viability, T/C [17]: 46.6% | viability, T/C [18]: 32.8% | viability, T/C [19]: 58.6% | viability, T/C [20]: 53.4% | viability, T/C [21]: 56.6% | viability, T/C [22]: 50.2% | viability, T/C [23]: 38.7% | viability, T/C [24]: 22.6% | viability, T/C [25]: 47.7% | viability, T/C [26]: 41.3% | viability, T/C [27]: 44% | viability, T/C [28]: 36.3% | viability, T/C [29]: 40.9% | viability, T/C [30]: 22.6%

CC(=O)c1c(C)c2cnc(Nc3ccc(N4CCNCC4)cn3)nc2n(C2CCCC2)c1=O + CC(C)NCC(C(=O)N1CCN(c2ncnc3c2C(C)CC3O)CC1)c1ccc(Cl)cc1
IC50 (second compound 0.1 µM): > 300 nM | IC50 (second compound 0.316 µM): > 300 nM | IC50 (second compound 1 µM): 275 nM | IC50 (second compound 3.16 µM): 23.6 nM | IC50 (second compound 10 µM): < 0.949 nM | viability, T/C (second compound 0.1 µM, first compound 0.000949 µM): 96.3% | viability, T/C (second compound 0.1 µM, first compound 0.003 µM): 100% | viability, T/C [31]: 97.1% | viability, T/C [32]: 90.7% | viability, T/C [33]: 89.6% | viability, T/C [34]: 86.8% | viability, T/C (second compound 0.316 µM, first compound 0.000949 µM): 80.9% | viability, T/C (second compound 0.316 µM, first compound 0.003 µM): 82.7% | viability, T/C [35]: 87.9% | viability, T/C [36]: 81.8% | viability, T/C [37]: 77.1% | viability, T/C [38]: 73.9% | viability, T/C (second compound 1 µM, first compound 0.000949 µM): 67.4% | viability, T/C (second compound 1 µM, first compound 0.003 µM): 71.4% | viability, T/C [39]: 63.1% | viability, T/C [40]: 62.4% | viability, T/C [41]: 55.5% | viability, T/C [42]: 49.9% | viability, T/C (second compound 3.16 µM, first compound 0.000949 µM): 45.1% | viability, T/C (second compound 3.16 µM, first compound 0.003 µM): 57.4% | viability, T/C [43]: 52.2% | viability, T/C [44]: 48.2% | viability, T/C [45]: 46.9% | viability, T/C [46]: 39.4% | viability, T/C (second compound 10 µM, first compound 0.000949 µM): 41.6% | viability, T/C (second compound 10 µM, first compound 0.003 µM): 42.7% | viability, T/C [47]: 36.9% | viability, T/C [48]: 34% | viability, T/C [49]: 34.5% | viability, T/C [50]: 23.2%

CC(C)(C)c1cnc(CSc2cnc(NC(=O)C3CCNCC3)s2)o1 + CC(C)NCC(C(=O)N1CCN(c2ncnc3c2C(C)CC3O)CC1)c1ccc(Cl)cc1
IC50 (second compound 0.1 µM): 89.4 nM | IC50 (second compound 0.316 µM): 87.5 nM | IC50 (second compound 1 µM): 81.1 nM | IC50 (second compound 3.16 µM): 40.4 nM | IC50 (second compound 10 µM): 9.49 nM | viability, T/C [31]: 87.9% | viability, T/C [32]: 98% | viability, T/C [33]: 47.7% | viability, T/C [34]: 22.2% | viability, T/C (second compound 0.1 µM, first compound 0.949 µM): 29.6% | viability, T/C (second compound 0.1 µM, first compound 3 µM): 32.6% | viability, T/C [35]: 83.9% | viability, T/C [36]: 87% | viability, T/C [37]: 47.3% | viability, T/C [38]: 22.4% | viability, T/C (second compound 0.316 µM, first compound 0.949 µM): 29% | viability, T/C (second compound 0.316 µM, first compound 3 µM): 29.9% | viability, T/C [39]: 76.5% | viability, T/C [40]: 75.6% | viability, T/C [41]: 45.9% | viability, T/C [42]: 21.6% | viability, T/C (second compound 1 µM, first compound 0.949 µM): 25.3% | viability, T/C (second compound 1 µM, first compound 3 µM): 28.9% | viability, T/C [43]: 54.8% | viability, T/C [44]: 61.6% | viability, T/C [45]: 26.4% | viability, T/C [46]: 20.2% | viability, T/C (second compound 3.16 µM, first compound 0.949 µM): 22.2% | viability, T/C (second compound 3.16 µM, first compound 3 µM): 24.9% | viability, T/C [47]: 47.1% | viability, T/C [48]: 49.8% | viability, T/C [49]: 14.4% | viability, T/C [50]: 17.9% | viability, T/C (second compound 10 µM, first compound 0.949 µM): 21.1% | viability, T/C (second compound 10 µM, first compound 3 µM): 22.1%

Cn1nccc1Nc1nccc(-c2ccn(C(CO)c3ccc(Cl)c(F)c3)c(=O)c2)n1 (stereo not given) + CC(C)NCC(C(=O)N1CCN(c2ncnc3c2C(C)CC3O)CC1)c1ccc(Cl)cc1
IC50 (second compound 0.1 µM): > 10000 nM | IC50 (second compound 0.316 µM): > 10000 nM | IC50 (second compound 1 µM): > 10000 nM | IC50 (second compound 3.16 µM): > 10000 nM | IC50 (second compound 10 µM): < 31.6 nM | viability, T/C [1]: 82.7% | viability, T/C [2]: 85.4% | viability, T/C [3]: 91% | viability, T/C [4]: 116% | viability, T/C [5]: 113% | viability, T/C [6]: 98.5% | viability, T/C [7]: 72.7% | viability, T/C [8]: 77.4% | viability, T/C [9]: 78.3% | viability, T/C [10]: 77.6% | viability, T/C [11]: 99.6% | viability, T/C [12]: 76.8% | viability, T/C [13]: 65.2% | viability, T/C [14]: 66.7% | viability, T/C [15]: 74.4% | viability, T/C [16]: 74.6% | viability, T/C [17]: 77.7% | viability, T/C [18]: 77.5% | viability, T/C [19]: 51.9% | viability, T/C [20]: 55% | viability, T/C [21]: 52.1% | viability, T/C [22]: 56.2% | viability, T/C [23]: 64.2% | viability, T/C [24]: 72.6% | viability, T/C [25]: 43.8% | viability, T/C [26]: 41% | viability, T/C [27]: 38.4% | viability, T/C [28]: 49.4% | viability, T/C [29]: 44.2% | viability, T/C [30]: 44.2%
